# Measured values reported in patent US20100137313A1 (ASTRAZENECA AB, priority 2008, published 2010).
# Target: S. pneumoniae Topoisomerase IV ATPase (ParE) (Streptococcus pneumoniae serotype 4, UniProt Q59961)
# Assay: S. pneumoniae Topoisomerase IV ATPase inhibition
# Format: biochemical
# Settings: values marked * are an average of two or more data points, 13 µM
# In short: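 Phosphate release by ParE ATPase from S. pneumoniae read colorimetrically (malachite green, 650 nm), enzyme 1.25 nM, ATP 160 μM, salmon sperm DNA present, buffer 20 mM Tris pH 8.0 with 8 mM MgCl2. IC50 over 10 compound concentrations, EDTA (20 μM) and DMSO controls defining inhibition range.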
# Chain of S. pneumoniae Topoisomerase IV ATPase (ParE) (Q59961 whole entry): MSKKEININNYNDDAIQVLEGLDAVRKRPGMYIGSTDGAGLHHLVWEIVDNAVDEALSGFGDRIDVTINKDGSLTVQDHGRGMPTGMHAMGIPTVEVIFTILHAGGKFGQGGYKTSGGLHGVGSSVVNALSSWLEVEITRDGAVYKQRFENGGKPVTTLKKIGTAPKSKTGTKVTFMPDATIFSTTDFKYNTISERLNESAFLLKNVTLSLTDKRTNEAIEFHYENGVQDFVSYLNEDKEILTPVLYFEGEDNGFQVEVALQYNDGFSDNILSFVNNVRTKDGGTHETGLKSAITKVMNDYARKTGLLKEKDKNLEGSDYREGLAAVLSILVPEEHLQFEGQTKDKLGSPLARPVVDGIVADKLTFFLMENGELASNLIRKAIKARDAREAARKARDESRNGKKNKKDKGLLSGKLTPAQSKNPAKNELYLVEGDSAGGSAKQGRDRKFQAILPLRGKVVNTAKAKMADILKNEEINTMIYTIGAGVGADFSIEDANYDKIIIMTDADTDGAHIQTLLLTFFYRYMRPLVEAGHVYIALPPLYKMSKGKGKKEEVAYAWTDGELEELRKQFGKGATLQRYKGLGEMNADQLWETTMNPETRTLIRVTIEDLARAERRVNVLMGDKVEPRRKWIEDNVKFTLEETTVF
row,SMILES,% Inh (13 μM) of S. pneumoniae Topoisomerase IV ATPase [%]
1,O=C(O)/C=C/c1cccc(-c2cnc(Nc3ccc(F)c(Cl)c3)nc2N[C@H]2CCOC2)c1 [Example 958],93

# Same assay, conditions: values marked * are an average of two or more data points, read-out: % Inh (13 μM) of S. pneumoniae Topoisomerase IV ATPase
row,SMILES,inhibition at 13 µM [%]
1,"CNC(=O)CNC(=O)c1cncc(-c2cnc(Nc3ccc(F)c(Cl)c3)nc2-n2nc(C(F)(F)F)cc2C)c1 [Example 930, 5-(2-(3-chloro-4-fluorophenylamino)-4-(5-methyl-3-(trifluoromethyl)-1H-pyrazol-1-yl)pyrimidin-5-yl)-N-(2-(methylamino)-2-oxoethyl)nicotinamide]",72
2,"Cc1cc(C(F)(F)F)nn1-c1nc(Nc2ccc(F)c(Cl)c2)ncc1-c1cncc(C(=O)N2CCOCC2)c1 [Example 931, (5-(2-(3-chloro-4-fluorophenylamino)-4-(5-methyl-3-(trifluoromethyl)-1H-pyrazol-1-yl)pyrimidin-5-yl)pyridin-3-yl)(morpholino)methanone]",100
3,"Cc1cc(C(F)(F)F)nn1-c1nc(Nc2ccc(F)c(Cl)c2)ncc1-c1cncc(C(=O)NCCN2CCOCC2)c1 [Example 932, 5-(2-(3-chloro-4-fluorophenylamino)-4-(5-methyl-3-(trifluoromethyl)-1H-pyrazol-1-yl)pyrimidin-5-yl)-N-(2-morpholinoethyl) nicotinamide]",100
4,"CONC(=O)c1cncc(-c2cnc(Nc3ccc(F)c(Cl)c3)nc2-n2nc(C(F)(F)F)cc2C)c1 [Example 933, 5-(2-(3-chloro-4-fluorophenylamino)-4-(5-methyl-3-(trifluoromethyl)-1H-pyrazol-1-yl)pyrimidin-5-yl)-N-methoxynicotinamide]",100
5,"COCCNC(=O)c1cncc(-c2cnc(Nc3ccc(F)c(Cl)c3)nc2-n2nc(C(F)(F)F)cc2C)c1 [Example 934, 5-(2-(3-chloro-4-fluorophenylamino)-4-(5-methyl-3-(trifluoromethyl)-1H-pyrazol-1-yl)pyrimidin-5-yl)-N-(2-methoxyethyl)nicotinamide]",100
6,"COCC(COC)NC(=O)c1cncc(-c2cnc(Nc3ccc(F)c(Cl)c3)nc2-n2nc(C(F)(F)F)cc2C)c1 [Example 935, 5-(2-(3-chloro-4-fluorophenylamino)-4-(5-methyl-3-(trifluoromethyl)-1H-pyrazol-1-yl)pyrimidin-5-yl)-N-(1,3-dimethoxypropan-2-yl)nicotinamide]",100
7,"COc1cc(Nc2ncc(-c3cncc(C(=O)NCC(O)CO)c3)c(-n3nc(C(F)(F)F)cc3C)n2)cc(C(F)(F)F)c1 (stereo not shown) [Example 936, N-(2,3-dihydroxypropyl)-5-(2-(3-methoxy-5-(trifluoromethyl)phenylamino)-4-(5-methyl-3-(trifluoromethyl)-1H-pyrazol-1-yl)pyrimidin-5-yl)nicotinamide]",100
8,"COCCCNc1nc(Nc2ccc(F)c(Cl)c2)ncc1-c1nnn[nH]1 [Example 937, N2-(3-chloro-4-fluorophenyl)-N4-(3-methoxypropyl)-5-(1H-tetrazol-5-yl)pyrimidine-2,4-diamine]",17
9,"CN(C)CCCNc1nc(Nc2ccc(F)c(Cl)c2)ncc1-c1cncc(-c2nnn[nH]2)c1 [Example 938, 5-(5-(1H-tetrazol-5-yl)pyridin-3-yl)-N2-(3-chloro-4-fluorophenyl)-N4-(3-(dimethylamino)propyl)pyrimidin-2,4-diamine]",91
10,"COc1ncc(-c2cnc(Nc3ccc(F)c(Cl)c3)nc2NC2CCOC2)cn1 (stereo not shown) [Example 940, N2-(3-chloro-4-fluorophenyl)-2′-methoxy-N4-(tetrahydrofuran-3-yl)-5,5′-bipyrimidine-2,4-diamine]",76
11,"COc1ncc(-c2cnc(Nc3ccc(F)c(Cl)c3)nc2N[C@H]2CCOC2)cn1 [Example 941, (S)-N2-(3-chloro-4-fluorophenyl)-2′-methoxy-N4-(tetrahydrofuran-3-yl)-5,5′-bipyrimidine-2,4-diamine]",54
12,"O=C(O)/C=C/c1cccc(-c2cnc(Nc3ccc(F)c(Cl)c3)nc2N[C@H]2CCOC2)c1 [Example 942, (S, E)-3-(3-(2-(3-chloro-4-fluorophenylamino)-4-(tetrahydrofuran-3-ylamino)pyrimidin-5-yl)phenyl)acrylic acid]",100
13,"Cc1cc(C(F)(F)F)nn1-c1nc(Nc2ccc(F)c(Cl)c2)ncc1-c1cnc(OCCS(C)(=O)=O)c(C(=O)O)c1 [Example 956, 5-(2-(3-chloro-4-fluorophenylamino)-4-(5-methyl-3-(trifluoromethyl)-1H-pyrazol-1-yl)pyrimidin-5-yl)-2-(2-(methylsulfonyl)ethoxy)nicotinic acid]",100
14,"COc1cc(Nc2ncc(-c3cnc(OCCNC(C)=O)c(C(=O)O)c3)c(-n3nc(C(F)(F)F)cc3C)n2)cc(OC)c1 [Example 957, 2-(2-acetamidoethoxy)-5-(2-(3,5-dimthoxyphenylamino)-4-(5-methyl-3-(trifluoromethyl)-1H-pyrazol-1-yl)pyrimidin-5-yl)nicotinic acid]",100
15,"CC(C)Oc1ncc(-c2cnc(Nc3ccc(F)c(Cl)c3)nc2-n2ccc(C(F)(F)F)n2)cc1C(=O)O [Example 959, 5-(2-(3-chloro-4-fluorophenylamino)-4-(3-(trifluoromethyl)-1H-pyrazol-1-yl)pyrimidin-5-yl)-2-isopropoxynicotinic acid]",93
16,"Cc1cc(C(F)(F)F)nn1-c1nc(Nc2ccc(F)c(Cl)c2)ncc1-c1cnc(OC(C)C)c(C(=O)O)c1 [Example 960, 5-(2-(3-chloro-4-fluorophenylamino)-4-(5-methyl-3-(trifluoromethyl)-1H-pyrazol-1-yl)pyrimidin-5-yl)-2-isopropoxynicotinic acid]",100
17,"Cn1ccnc1COc1ncc(-c2cnc(Nc3ccc(F)c(Cl)c3)nc2-n2ccc(C(F)(F)F)n2)cc1C(=O)O [Example 961, 5-(2-(3-chloro-4-fluorophenylamino)-4-(3-(trifluoromethyl)-1H-pyrazol-1-yl)pyrimidin-5-yl)-2-((1-methyl-1H-imidazol-2-yl)methoxy)nicotinic acid]",100
18,"CN1CCN(CCOc2ncc(-c3cnc(Nc4ccc(F)c(Cl)c4)nc3-n3ccc(C(F)(F)F)n3)cc2C(=O)O)CC1 [Example 962, 5-(2-(3-chloro-4-fluorophenylamino)-4-(3-(trifluoromethyl)-1H-pyrazol-1-yl)pyrimidin-5-yl)-2-(2-(4-methylpiperazin-1-yl)ethoxy)nicotinic acid]",98
19,"Cc1cc(C(F)(F)F)nn1-c1nc(Nc2ccc(F)c(Cl)c2)ncc1-c1cnc(OCCN2CCN(C)CC2)c(C(=O)O)c1 [Example 963, 5-(2-(3-chloro-4-fluorophenylamino)-4-(5-methyl-3-(trifluoromethyl)-1H-pyrazol-1-yl)pyrimidin-5-yl)-2-(2-(4-methylpiperazin-1-yl)ethoxy)nicotinic acid]",100
20,Cc1cc(C)cc(Nc2ncc(-c3cnc(OCCS(C)(=O)=O)c(C(=O)O)c3)c(-n3ccc(C(F)(F)F)n3)n2)c1 [Example 964],40
21,"COc1cc(Nc2ncc(-c3cnc(OCCS(C)(=O)=O)c(C(=O)O)c3)c(-n3nc(C(F)(F)F)cc3C)n2)cc(OC)c1 [Example 965, 5-(2-(3,5-dimethoxyphenylamino)-4-(5-methyl-3-(trifluoromethyl)-1H-pyrazol-1-yl)pyrimidin-5-yl)-2-(2-(methylsulfonyl)ethoxy)nicotinic acid]",100
22,"CS(=O)(=O)CCOc1ncc(-c2cnc(Nc3ccc(F)c(Cl)c3)nc2-n2ccc(C(F)(F)F)n2)cc1C(=O)O [Example 966, 5-(2-(3-chloro-4-fluorophenylamino)-4-(3-(trifluoromethyl)-1H-pyrazol-1-yl)pyrimidin-5-yl)-2-(2-(methylsulfonyl)ethoxy)nicotinic acid]",100
23,"COc1cc(Nc2ncc(-c3cnc(OCCCS(C)(=O)=O)c(C(=O)O)c3)c(-n3nc(C(F)(F)F)cc3C)n2)cc(OC)c1 [Example 967, 5-(2-(3,5-dimethoxyphenylamino)-4-(5-methyl-3-(trifluoromethyl)-1H-pyrazol-1-yl)pyrimidin-5-yl)-2-(3-(methylsulfonyl)propoxy)nicotinic acid]",100
24,"COc1cc(Nc2ncc(-c3cnc(OCCCS(C)(=O)=O)c(C(=O)O)c3)c(-n3ccc(C(F)(F)F)n3)n2)cc(OC)c1 [Example 968, 5-(2-(3,5-dimethoxyphenylamino)-4-(3-(trifluoromethyl)-1H-pyrazol-1-yl)pyrimidin-5-yl)-2-(3-(mehtylsulfonyl)propoxy)nicotinic acid]",94
25,"COc1cc(Nc2ncc(-c3cnc(OCCNC(C)=O)c(C(=O)NS(C)(=O)=O)c3)c(-n3nc(C(F)(F)F)cc3C)n2)cc(OC)c1 [Example 969, 2-(2-acetamidoethoxy)-5-(2-(3,5-dimethoxyphenylamino)-4-(5-methyl-3-(trifluoromethyl)-1H-pyrazol-1-yl)pyrimidin-5-yl)-N-(methylsulfonyl)nicotinamide]",100
26,"COc1cc(Nc2ncc(-c3cnc(OCCCS(C)(=O)=O)c(C(=O)NS(C)(=O)=O)c3)c(-n3nc(C(F)(F)F)cc3C)n2)cc(OC)c1 [Example 970, 5-(2-(3,5-dimethoxyphenylamino)-4-(5-methyl-3-(trifluoromethyl)-1H-pyrazol-1-yl)pyrimidin-5-yl)-N-(methylsulfonyl)-2-(3-(methylsulfonyl)propoxy)nicotinamide]",100
27,"COc1cc(Nc2ncc(-c3cnc(OCCCS(C)(=O)=O)c(C(=O)NS(C)(=O)=O)c3)c(-n3ccc(C(F)(F)F)n3)n2)cc(OC)c1 [Example 971, (2-(3,5-dimethoxyphenylamino)-4-(3-(trifluoromethyl)-1H-pyrazol-1-yl)pyrimidin-5-yl)-N-(methylsulfonyl)-2-(3-(methylsulfonyl)propoxy)nicotinamide]",100
